The results in this text go back to patent publication US20080070971A1, “Medical Use of Bilirubin and its Structural Analogues” (priority 2006, published 2008).

Assay [1] has as its target T1, cholesterol esterase (CHE) (Homo sapiens, UniProt P19835).
T1 sequence (P19835 21-753): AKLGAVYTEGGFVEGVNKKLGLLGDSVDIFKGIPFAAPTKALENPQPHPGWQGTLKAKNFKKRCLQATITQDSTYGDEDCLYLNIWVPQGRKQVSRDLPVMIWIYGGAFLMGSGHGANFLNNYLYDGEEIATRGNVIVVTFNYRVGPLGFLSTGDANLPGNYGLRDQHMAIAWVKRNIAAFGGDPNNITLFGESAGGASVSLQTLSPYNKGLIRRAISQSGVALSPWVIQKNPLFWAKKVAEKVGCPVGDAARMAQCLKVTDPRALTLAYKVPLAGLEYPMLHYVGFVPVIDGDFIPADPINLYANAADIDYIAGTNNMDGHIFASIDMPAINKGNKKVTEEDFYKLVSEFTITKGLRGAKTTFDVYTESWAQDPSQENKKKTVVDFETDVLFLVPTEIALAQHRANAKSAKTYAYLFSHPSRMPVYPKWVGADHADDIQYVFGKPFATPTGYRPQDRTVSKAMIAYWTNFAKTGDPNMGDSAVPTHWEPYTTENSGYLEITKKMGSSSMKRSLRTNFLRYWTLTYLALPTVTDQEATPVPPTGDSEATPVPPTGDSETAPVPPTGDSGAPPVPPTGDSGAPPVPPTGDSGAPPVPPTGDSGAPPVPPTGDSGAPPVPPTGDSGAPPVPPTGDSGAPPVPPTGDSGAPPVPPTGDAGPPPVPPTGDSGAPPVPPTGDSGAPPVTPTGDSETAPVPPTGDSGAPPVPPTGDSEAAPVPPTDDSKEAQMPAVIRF
Description: Cholesterol esterase inhibition. The class given is biochemical. The note with it: bilirubin concentration of about 10 mg/L; pH=7.2 (FIG. 1).

Assay [2] has as its system liver cholesterol esterase. Description: Cholesterol esterification by liver cholesterol esterase. The class given is biochemical.
Assay [3] addresses T2, acetylcholinesterase (Homo sapiens, UniProt P22303).
T2 construct: purchased SigmaAldrich C0663
Kind of assay: Acetylcholinesterase activity by choline release. The class given is biochemical. The note with it: at high bilirubin concentrations (FIG. 2). Here is the method: Since bilirubin itself gives an absorption peak at 460 nm, which interferes with the cholinesterase assay procedures in many standard assay kits, a modified method was developed. The acetylcholinesterase activity was determined by measuring the quantity of choline release from acetylcholine:
Briefly, after 30 minutes reaction in the above acetylcholine-enzyme solution at pH=7.8, in the absence or presence of bilirubin, the reaction was stopped by heating to about 100° C. in boiling water. The solution was then cooled down to 37° C. Residual bilirubin was neutralized by titrating with H2O2. The amount of choline was then determined by the following choline oxidase assay method provided by SigmaAldrich (Cat.# C5896): […]

Assay [4] deals with cyclooxygenase (COX). Kind of assay: Cyclooxygenase (COX) inhibition. The class given is biochemical, human. Here is the method:
The activity of COX was determined by the procedure described in Assay Design's Enzyme Immunometric Assay (EIA) kit (Assay Design Inc., TiterZyme EIA cat.#900-094). Briefly, the kit uses a monoclonal antibody to human COX-II immobilized on a microtiter plate to bind the human COX in the standard or sample. After a short incubation the excess standard or sample is washed out and a rabbit polyclonal antibody to human COX labeled with the enzyme. Horseradish peroxidase is added. This labeled antibody binds to the human COX captured on the plate. After a short incubation the excess labeled antibody is washed out and substrate is added. The substrate reacts with the labeled antibody bound to the human COX captured on the plate. After a short incubation, the enzyme reaction is stopped and the color generated is read at 450 nm. The measured optical density is directly proportional to the concentration of human COX.
Purified cyclooxygenases (COX) were obtained from Kayman Chemical Company and used to examine the inhibitory effect of bilirubin with arachidonic acid as the substrate. High purity of bilirubin (SigmaAldrich #B4126), biliverdin (Frontier Scientific Inc., Cat. B655-9) and hemin (SigmaAldrich, #51280) were used as received.

The nature of assay [5]: Minimal erythema dose (MED) on skin exposed to solar radiation. The class given is in vivo, human. An excerpt: Healthy volunteers were exposed to solar radiation for evaluation of minimal erythema dose (MED)—a direct sign of acute inflammation, without and with pretreatment of bilirubin (dissolved in dimethyl sulfoxide).
In assay [6] the test system is Human carcinoma cells. Description: Cancer cell growth by cell counting. The class given is cell-based. Conditions: concentrations above 10 mg/L (FIG. 10). As for the experimental part:
Cell growth. Human carcinoma cells were cultured continuously in a medium containing ferrous sulfate, kept in a humidified incubator at 37° C. Cancer cells were seeded in triplicate at a density of 10,000 cells/3.5-cm culture dish overnight before being subjected to treatments. Growth was estimated by counting cells in a hemocytometer after staining cells with trypan blue. Cell yields from cultures maintained in seeding medium served as growth controls for computing the relative cell growth.

A short description of assay [7]: Oral bilirubin supplementation, blood chemistry. The class given is in vivo. Here is the method:
2-6 bilirubin pills (10 mg/capsule)were ingested daily as a dietary supplement over time period from 3-12 months. Blood samples were taken by medical professionals and blood chemistry, including serum bilirubin level, total cholesterol, triglyceride, LDL-cholesterol, and HDL cholesterol were analyzed by independent medical testing laboratories.

Setting [8] is: 2-6 pills (10 mg/capsule) daily, 3-12 months.
Setting [9] is: at higher serum bilirubin level (FIG. 12).

T2 sequence (P22303 32-617 isoform P22303-2 limits assumed): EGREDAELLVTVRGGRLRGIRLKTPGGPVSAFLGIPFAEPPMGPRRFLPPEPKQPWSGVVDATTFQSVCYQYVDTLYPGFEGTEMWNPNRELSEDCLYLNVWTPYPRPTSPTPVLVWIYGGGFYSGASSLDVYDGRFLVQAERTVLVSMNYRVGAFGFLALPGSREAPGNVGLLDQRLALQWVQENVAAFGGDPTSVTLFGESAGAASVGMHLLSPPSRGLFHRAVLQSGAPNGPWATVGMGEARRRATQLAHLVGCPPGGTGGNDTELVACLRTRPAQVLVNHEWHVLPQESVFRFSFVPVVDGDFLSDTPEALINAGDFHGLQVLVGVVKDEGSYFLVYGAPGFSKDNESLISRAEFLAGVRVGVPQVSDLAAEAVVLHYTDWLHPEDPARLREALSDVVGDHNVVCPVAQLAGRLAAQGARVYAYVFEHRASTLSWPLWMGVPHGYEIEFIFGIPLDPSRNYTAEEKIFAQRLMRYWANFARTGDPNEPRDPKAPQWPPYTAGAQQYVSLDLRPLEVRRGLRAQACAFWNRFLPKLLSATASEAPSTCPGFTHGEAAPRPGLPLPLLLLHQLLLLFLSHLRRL

What is called inhibition is the relative decrease from the control value, in per cent. Regarding `C=CC1=C(C)C(=Cc2[nH]c(Cc3[nH]c(C=C4NC(=O)C(C)=C4C=C)c(C)c3CCC(=O)O)c(CCC(=O)O)c2C)NC1=O` [bilirubin, 2,7,13,17-tetramethyl-1,19-dioxo-3,18-divinyl-1,10,19,22,23,24-hexahydro-21H-biline-8,12-dipropanoic acid], the inhibition at 10 µg/mL in assay [1] was around 50%. In addition, in assay [2], the “inhibition of cholesterol esterification by liver cholesterol esterase” value was “inhibits”. In addition, the acetylcholinesterase activity result in assay [3] was “completely eliminated”. Also, in assay [4] (10 mg/L bilirubin (FIG. 3)), the “inhibition of the COX activity” value is reported as “Up to 70%”. Moreover, the “reducing COX activity (comparison)” value in assay [4] (concentration of 10 mg/L (FIG. 4)) was “effective in reducing COX activity”. The “skin inflammation after UV exposure” value in assay [5] (bilirubin treated skin areas) is “no sign of inflammation”. In addition, in assay [5] (topical pretreatment with bilirubin in DMSO (FIG. 8)), the “minimal erythema dose (MED)” value is given as “increased”. In addition, the relative cell growth entry in assay [6] was “largely suppressed”. In assay [7] (setting [8]), the total cholesterol concentration result is listed as “varied inversely” and the “total serum bilirubin level” value is “effectively increased”. In assay [7] (setting [9]), the LDL-cholesterol level entry is given as “lower” and the triglycerol level result is given as “lower”. For the same compound, in assay [7] (bilirubin treatment), the fecal fat content result was “substantially increased”.
